This is an account of results in patent publication US20230312643A1, “PEPTIDE DERIVATIVE WITH COLLAGENASE INHIBITORY ACTIVITY, AND USE THEREOF” (SUNMARINE BIOTECH, priority 2020, published 2023).

One data set deals with T1, elastase (Sus scrofa, UniProt P00772).
T1 construct: purchased Invitrogen
Kind of data set: Elastase inhibitory activity (EnzChek Elastase Assay Kit, DQ elastin). It counts as biochemical. The note with it: for inhibition at 20 µg/mL: 0.02 mg/ml; for inhibition at 40 µg/mL: 0.04 mg/ml; for inhibition at 60 µg/mL: 0.06 mg/ml. How it is done:
Elastase inhibitory activity was performed by purchasing EnzChek® Elastase Assay Kit (600 Assays) reagent from Invitrogen. First, DQ elastin stock solution (1 mg/ml) was prepared by adding 1.0 ml of DDW to 1 mg DQ elastin vial. The 18 ml of DDW was added to 2 ml of 10× reaction buffer, so as to dilute reaction buffer. Then, an elastase enzyme reagent was prepared, and diluted with reaction buffer to a final concentration of 0.2 U/ml as working solution. Three samples of 50 ? each were prepared in a 96-well plate. The 50 ? of reaction buffer was added to 50 ? of DQ elastin and sample blank, and 50 ? of working solution was added to a sample, which were then left in a light-blocked state at room temperature for about one hour, and then fluorescence intensity was measured at excitation wavelength 505 nm and emission wavelength 515 nm using ELISA plate reader (VICTOR X3™, PerkinElmer, US).
Copper peptide (Comparative Example 12) and EGCg (Comparative Example 13), which is widely used as a raw material for functional cosmetics, were prepared at the same concentration and used as a positive control.
EGCg (epigallocatechin gallate) is a kind of polyphenol, which is an extract of green tea leaves, and is used as a cosmetic raw material for anti-oxidation, inflammation reduction, and wrinkle alleviation, and Copper peptide is used as a raw material for promoting wound healing, strengthening skin elasticity, and increasing subcutaneous fat layer to suppress skin aging due to excellent skin regeneration ability.

The test system of the next data set is gelatinase. Kind of data set: Gelatinase inhibitory activity (EnzChek Gelatinase/Collagenase Assay Kit, DQ gelatin). The class given is biochemical. How it is done: Gelatinase is an enzyme which plays a major role in promoting skin aging by more finely degrading collagen fragments digested by MMP-1 with MMP-2, and wrinkle reduction activity was determined by measuring the inhibitory activity of the enzyme.
(§1) Gelatinase inhibitory activity was performed by purchasing EnzChek® Gelatinase/Collagenase Assay Kit (250-2000 Assays) reagent from Invitrogen. First, DQ gelatin stock solution (1 mg/ml) was prepared by adding 1.0 ml of DDW to 1 mg DQ gelatin vial. The 18 ml of DDW was added to 2 ml of 10× reaction buffer, so as to dilute reaction buffer. Then, a gelatinase enzyme reagent was prepared, and diluted with reaction buffer to a final concentration of 0.2 U/ml as working solution. Three samples of 50 ? each were prepared in a 96-well plate. The 30 ? of reaction buffer was added to 20 ? of DQ gelatin and sample blank, and 30 ? of working solution was added to a sample, which were then left in a light-blocked state at room temperature for about one to two hours, and then fluorescence intensity was measured at excitation wavelength 485 nm and 535 nm using ELISA plate reader (VICTOR X3™, PerkinElmer, US).

For data set [1], the target named is T2, MMP1 protein (pdb1cgl) (Homo sapiens, UniProt P03956).
T2 sequence (P03956 101-269 limits assumed): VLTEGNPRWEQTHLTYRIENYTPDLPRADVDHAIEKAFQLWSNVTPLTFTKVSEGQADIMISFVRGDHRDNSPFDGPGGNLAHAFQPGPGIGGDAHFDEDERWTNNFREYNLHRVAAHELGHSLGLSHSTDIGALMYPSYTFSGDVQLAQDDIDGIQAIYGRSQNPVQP
Kind of data set: Molecular docking (SYBYL-X 2.1.1, Surflex-Dock 2.7) of binding affinity to collagenase. Particulars: from Surflex-Dock total score. How it is done: Molecular modeling was conducted through a computer simulation program.
Target structure: MMP1 protein (pdb1cgl)
Software: SYBYL-X 2.1.1, Surflex-Dock2.7
Through a computer simulation program, a study was conducted on how to promote collagenase enzyme inhibitory activity and percutaneous absorption during peptide modification.
Total score is a value indicating the degree of binding affinity of a docked structure including a crash and a polar interaction in the unit of pKd, and the larger the value, the higher the binding affinity. And, the similarity is a value comparing the similarity with the structure already bonded to the 1cgl, and means that the closer to 1, the more similar. The result of such docking means that the addition of an appropriate modification residue through a docking simulation of computer chemistry may increase the binding affinity and similarity.
However, when compared with the overall consensus score, a binding affinity similar to or higher than that of pdb1cgl_ligand may be expected, particularly in the modified GPN and PGN, too.

Data set [2] deals with T2, MMP1 protein (pdb1cgl). Particulars: ligand binding to pdb; cited from earlier work.
Data set [3] can be described thus: HS68 cytotoxicity test (MTS cell viability). It counts as cell-based. The note with it: human, HS68 cells (skin fibroblasts); for viability at 24 h, 1 µg/mL: HS68, 1 μg/ml; for viability at 24 h, 10 µg/mL: HS68, 10 μg/ml; for viability at 24 h, 50 µg/mL: HS68, 50 μg/ml; for viability at 24 h, 100 µg/mL: HS68, 100 μg/ml. How it is done:
Skin fibroblast HS68 cells were used. The medium was DMEM high glucose (SH30243.01, HyClone™, Logan, UT, USA) medium containing 10% fetal bovine serum (FBS, Lonza, Valais, Switzerland) medium. The cell lines were cultured in an incubator adjusted to 95% humidity, 5% CO2 and 37° C., and at this time, a medium antibiotic (Penicillin streptomycin, Gibco, Calif., USA) was used to suppress contamination or proliferation of microorganisms.
(§2) Cell viability was measured using MTS (CellTiter 96® AQueous One Solution Cell Proliferation Assay, Promega, USA) reagent. The cells were divided at a concentration of 1×10^4 cells/well in a 96-well plate and then stabilized for 24 hours in an incubator controlled to 95% humidity, 5% CO2 and 37° C. After that, the samples were treated for each concentration and cultured for 24 hours in an incubator controlled to 95% j humidity, 5% CO2 and 37° C. After the medium was removed, 9 ml of medium (DMEM high, free FBS) was added to 1 ml of the reagent and diluted, and then 100 ul of the diluted solution was treated per well. After the reaction at 37° C. for 60 minutes, absorbance was measured at 490 nm with microplate reader (Molecular Devices, VersaMax ELISA Microplate Reader, USA). Cell viability was represented by absorbance of a sample-treated group compared to a control group not treated with the sample.

A short description of data set [4]: HaCaT cytotoxicity test (MTS cell viability). It counts as cell-based. The note with it: human, HaCaT cells (skin epidermal cells); for viability at 24 h, 1 µg/mL: 1 μg/ml; for viability at 24 h, 10 µg/mL: 10 μg/ml; for viability at 24 h, 50 µg/mL: 50 μg/ml; for viability at 24 h, 100 µg/mL: 100 μg/ml. How it is done:
HaCaT cells, skin epidermal cells (derived from human), were used. The medium was DMEM low (SH30021.01, HyClone™, Logan, UT, USA) medium containing 10% fetal bovine serum (FBS, Lonza, Valais, Switzerland) medium. The cell lines were cultured in an incubator adjusted to 95% humidity, 5% CO2 and 37° C., and at this time, a medium antibiotic (Penicillin streptomycin, Gibco, Calif., USA) was used to suppress contamination or proliferation of microorganisms. When the cells covered the dish about 80%, the cells were washed with phosphated-buffered saline-EDTA (PBS-EDTA), and then the cells attached to the bottom of the dish were detached by treating with 1 ml of 0.05% trypsin EDTA, and subjected to subculture. The medium was exchanged every 48 hours to culture the cells.
as §2, with “each concentration (table 1) and cultured” for “each concentration and cultured”, “to 95% humidity, 5%” for “to 95% j humidity, 5%”, “medium (DMEM low, free FBS)” for “medium (DMEM high, free FBS)”

The subject of another data set is collagenase. Kind of data set: Collagenase inhibitory activity (EnzChek Gelatinase/Collagenase Assay Kit, DQ collagen). The class given is biochemical. How it is done: as §1, with “Collagenase inhibitory activity” for “Gelatinase inhibitory activity”, “First, DQ collagen stock solution” for “First, DQ gelatin stock solution”, “mg DQ collagen vial. The” for “mg DQ gelatin vial. The”, “Then, a collagenase enzyme reagent” for “Then, a gelatinase enzyme reagent”, “of DQ collagen and sample” for “of DQ gelatin and sample”, “nm and emission wavelength 535 nm” for “nm and 535 nm”
As a positive control, copper peptide (Comparative Example 12), which is a representative peptide widely used as a raw material for functional cosmetics, was prepared at the same concentration and used. Copper peptide has excellent skin regeneration ability and thus is used as a raw material to suppress skin aging by promoting wound healing, strengthening skin elasticity, and increasing subcutaneous fat layers.

T1 sequence (P00772 27-266): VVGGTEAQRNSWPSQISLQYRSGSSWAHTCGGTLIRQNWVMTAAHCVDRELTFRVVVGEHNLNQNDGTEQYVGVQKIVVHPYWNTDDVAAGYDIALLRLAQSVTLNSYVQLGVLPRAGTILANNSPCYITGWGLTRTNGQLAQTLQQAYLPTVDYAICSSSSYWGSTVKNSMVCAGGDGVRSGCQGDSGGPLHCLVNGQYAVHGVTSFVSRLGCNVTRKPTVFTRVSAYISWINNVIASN

On to `O=C(O[C@@H]1Cc2c(O)cc(O)cc2O[C@@H]1c1cc(O)c(O)c(O)c1)c1cc(O)c(O)c(O)c1` [EGCg, epigallocatechin gallate, reference compound], for which the results for the “elastase inhibitory activity” value on elastase (0.1 mg/ml) and at elastase (1 mg/ml) were 66.1 ± 4.4% and 66.1%, respectively. Besides, in the data set on gelatinase (0.5 mg/ml), the Gelatinase inhibitory activity turned out to be 74.7%.

Consider `NCC(=O)N1CCC[C@H]1C(=O)N[C@@H](CC(N)=O)C(=O)O` [GPN, Gly-Pro-Asn, reference compound], for which the “binding affinity compared to 1cgl ligand” value on MMP1 protein (pdb1cgl) [1] was “about 51.8%”.

With `CCCC(=O)C(CC(N)=O)NC(=O)C1CCCN1C(=O)CNC` (stereo not shown) [Me-GPN-Propyl], at MMP1 protein (pdb1cgl) [1], the “binding affinity compared to 1cgl ligand” value was 74.7% and the “increase of binding affinity compared to before the modification” value was found to be 21.9%.

Consider `CCCC(=O)C(CC(N)=O)NC(=O)CNC(=O)C1CCCN1C` (stereo not shown) [Me-PGN-Propyl], for which, at MMP1 protein (pdb1cgl) [1], the “binding affinity compared to 1cgl ligand” value is recorded as 90.1% and the “increase of binding affinity compared to before the modification” value came to 28.6%.

As to `COC(=O)NCC[C@@H](N[C@@H](CC(C)C)C(=O)N[C@@H](Cc1ccccc1)C(=O)NCCN1CCOCC1)C(=O)O` [PDB 1CGL], the Ki at MMP1 protein (pdb1cgl) [2] was 135 nM.

For the compound `CCCOC(=O)[C@H](CC(N)=O)NC(=O)CNC(=O)[C@@H]1CCCN1` [PGN-OPr, PGN(Pro-Gly-Asn)-OPr], the viability at 24 h, 1 µg/mL was 107 ± 2.4% in data set [3] and 117 ± 9.6% in data set [4]. Besides, the viability at 24 h, 10 µg/mL in data set [3] was found to be 107 ± 8.9%; in data set [4], 126 ± 14.1%. Also, the figures for the viability at 24 h, 50 µg/mL in data set [3] and in data set [4] were 115 ± 6.9% and 130 ± 13.3%, respectively. Besides, the viability at 24 h, 100 µg/mL amounted to 116 ± 3.6% in data set [3] and 128 ± 5.3% in data set [4]. Testing at 20 µg/mL at elastase gave an inhibition of 17.3 ± 1.1%. Besides, at 40 µg/mL the inhibition at elastase was 27.5 ± 2.5%. The compound also showed an inhibition at 60 µg/mL at elastase of 34.2 ± 0.5%. The same compound displayed an inhibition at 100 µg/mL against elastase (0.1 mg/ml) of 77.6 ± 2.8%. For the same compound, on elastase (1 mg/ml), the inhibition at 1000 µg/mL was 77.6%. For the same compound, the 50% inhibitory concentration (IC50) against elastase (FIGS. 8 and 9) was 216 µM. Further, the Collagenase inhibitory activity in the data set with collagenase (0.05 mg/ml) amounted to 5.7 ± 3.1%; with collagenase (0.1 mg/ml) it was 14.3 ± 5.2%; in the data set on collagenase (0.5 mg/ml), 67.1 ± 0.8%; in the data set on collagenase (1 mg/ml), 98.7%. For the same compound, the “collagenase inhibitory activity IC50” value on collagenase (FIGS. 5 and 6) was 0.508 mg/mL. In addition, the Gelatinase inhibitory activity with gelatinase (0.2 mg/ml) is reported as 16.9 ± 2.7%; in the data set on gelatinase (0.3 mg/ml), 54.2 ± 6.3%; in the data set on gelatinase (0.4 mg/ml), 96.4 ± 1.8%; in the data set on gelatinase (0.5 mg/ml) it was 98.9%. The “gelatinase inhibitory activity, times higher than that of Copper peptide” value in the data set on gelatinase (0.5 mg/ml) is ~15 times. The “gelatinase inhibitory activity, times higher than that of EGCg” value with gelatinase (0.5 mg/ml) is reported as “about 1.3 times”.

For `CCCCCCCCCCCCCCCC(=O)N1CCC[C@H]1C(=O)NCC(=O)N[C@@H](CC(N)=O)C(=O)O` [Pal-PGN], in data set [3], the viability at 24 h, 1 µg/mL turned out to be 106 ± 2.9%; the viability at 24 h, 10 µg/mL came to 111 ± 2.8%; the viability at 24 h, 50 µg/mL is 105 ± 3.3%; the viability at 24 h, 100 µg/mL was 116 ± 3.3%. For the same compound, at elastase, the inhibition at 20 µg/mL worked out at 0.3 ± 0.9%, the inhibition at 40 µg/mL amounted to 1.2 ± 2.8% and the inhibition at 60 µg/mL turned out to be 1.5 ± 2%. Further, the inhibition at 100 µg/mL against elastase (0.1 mg/ml) is 5.2 ± 2.9%. Also, in data set [4], the viability at 24 h, 1 µg/mL was found to be 115 ± 10%; the viability at 24 h, 10 µg/mL stood at 112 ± 3.7%; the viability at 24 h, 50 µg/mL came out at 113 ± 7.7%; the viability at 24 h, 100 µg/mL amounted to 108 ± 6.5%.
